biological target: human ACSS2 protein (Homo sapiens (Human), UniProt Q9NR19); experiment: ACSS2 Cell-Free Activity Assay (Cell-Free IC50); conditions: 10 nM human ACSS2 protein, 90 minutes at 37 C, pyrophosphatase-coupled, Biomol Green absorbance at 620 nm; read-out: ACSS2 Biochemical IC50
From the text: ACSS2 Cell-Free Activity Assay (Cell-Free IC50)

human ACSS2 protein, sequence (Q9NR19 whole entry): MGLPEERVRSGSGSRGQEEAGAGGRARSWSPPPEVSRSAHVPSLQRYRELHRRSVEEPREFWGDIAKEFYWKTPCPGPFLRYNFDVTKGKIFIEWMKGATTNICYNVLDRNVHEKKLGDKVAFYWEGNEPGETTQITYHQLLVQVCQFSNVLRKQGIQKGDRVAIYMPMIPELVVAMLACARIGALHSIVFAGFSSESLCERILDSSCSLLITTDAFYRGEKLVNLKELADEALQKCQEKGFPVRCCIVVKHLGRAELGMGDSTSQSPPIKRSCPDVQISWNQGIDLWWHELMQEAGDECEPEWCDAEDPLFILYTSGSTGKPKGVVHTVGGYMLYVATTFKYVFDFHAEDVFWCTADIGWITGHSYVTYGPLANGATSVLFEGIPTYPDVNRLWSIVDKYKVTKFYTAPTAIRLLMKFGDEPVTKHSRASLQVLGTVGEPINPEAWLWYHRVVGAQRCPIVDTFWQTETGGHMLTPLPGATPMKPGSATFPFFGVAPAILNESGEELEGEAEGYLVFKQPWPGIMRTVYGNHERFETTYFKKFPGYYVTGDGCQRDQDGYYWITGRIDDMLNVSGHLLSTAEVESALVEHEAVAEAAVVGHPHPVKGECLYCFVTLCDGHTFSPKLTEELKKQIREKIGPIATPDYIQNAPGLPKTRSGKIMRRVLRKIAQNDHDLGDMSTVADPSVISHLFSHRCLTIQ

Row | IC50 [µM] | SMILES
1 | < 0.001 | CCC(F)(F)c1cccc(NC(=O)C2(Cl)C(=O)N(c3ccc(OC(F)F)cc3)N=C2C)c1 (stereo not shown) [Compound 163, 4-chloro-1-(4-(difluoromethoxy)phenyl)-N-(3-(1,1-difluoropropyl)phenyl)-3-methyl-5-oxo-4,5-dihydro-1H-pyrazole-4-carboxamide]
2 | > 0.1 | Cc1nn(-c2ccc(OC(F)F)cc2)nc1C(=O)Nc1cccc(C(C)(F)F)c1 [Compound 164, N-(3-(1,1-difluoroethyl)phenyl)-2-(4-(difluoromethoxy)phenyl)-5-methyl-2H-1,2,3-triazole-4-carboxamide]
3 | > 0.1 | CC1=NN(c2ccc(OC(F)F)cc2)C(=O)C1(C)C(=O)Nc1cc(Cl)c(F)c(Cl)c1 (stereo not shown) [Compound 165, N-(3,5-dichloro-4-fluoro-phenyl)-1-[4-(difluoromethoxy)phenyl]-3,4-dimethyl-5-oxo-pyrazole-4-carboxamide]
4 | > 0.1 | CC1=NN(c2ccc(OC(F)F)cc2)C(=O)C1(C)C(=O)Nc1cc(F)cc(Cl)c1 (stereo not shown) [Compound 166, N-(3-chloro-5-fluoro-phenyl)-1-[4-(difluoromethoxy)phenyl]-3,4-dimethyl-5-oxo-pyrazole-4-carboxamide]
5 | > 0.1 | CC1=NN(c2ccc(OC(F)F)cc2)C(=O)C1(C)C(=O)Nc1cccc(Cl)c1 (stereo not shown) [Compound 167, N-(3-chlorophenyl)-1-[4-(difluoromethoxy)phenyl]-3,4-dimethyl-5-oxo-pyrazole-4-carboxamide]
6 | 0.001 to 0.1 | Cc1nn(-c2ccc(OC(F)F)cc2)c(N(C)C)c1C(=O)Nc1cccc(C(C)(F)F)c1 [Compound 168, N-(3-(1,1-difluoroethyl)phenyl)-1-(4-(difluoromethoxy)phenyl)-5-(dimethylamino)-3-methyl-1H-pyrazole-4-carboxamide]
7 | > 0.1 | CC1=NN(c2ccc(OC(F)F)cc2)C(=O)[C@@]1(C)C(=O)Nc1cccc(C(C)(F)F)c1 [Compound 169, (4R)—N-(3-(1,1-difluoroethyl)phenyl)-1-(4-(difluoromethoxy)phenyl)-3,4-dimethyl-5-oxo-4,5-dihydro-1H-pyrazole-4-carboxamide]
8 | > 0.1 | CC1=NN(c2ccc(OC(F)F)cc2)C(=O)[C@]1(C)C(=O)Nc1cccc(C(C)(F)F)c1 [Compound 170, (4S)—N-(3-(1,1-difluoroethyl)phenyl)-1-(4-(difluoromethoxy)phenyl)-3,4-dimethyl-5-oxo-4,5-dihydro-1H-pyrazole-4-carboxamide]
9 | > 0.1 | Cc1nn(-c2ccc(OC(F)F)cc2)c(N)c1C(=O)Nc1cccc(C(C)(F)F)c1 [Compound 171, 5-amino-N-(3-(1,1-difluoroethyl)phenyl)-1-(4-(difluoromethoxy)phenyl)-3-methyl-1H-pyrazole-4-carboxamide]
10 | 0.001 to 0.1 | CC1=NN(c2ccc(OC(F)F)cc2)C(=O)C1(Cl)C(=O)Nc1cccc(C(C)(F)F)c1 (stereo not shown) [Compound 172, 4-chloro-N-(3-(1,1-difluoroethyl)phenyl)-1-(4-(difluoromethoxy)phenyl)-3-methyl-5-oxo-4,5-dihydro-1H-pyrazole-4-carboxamide]
11 | > 0.1 | CC(F)(F)c1cccc(NC(=O)c2cnc(-c3ccc(OC(F)F)cc3)nc2)c1 [Compound 173, N-(3-(1,1-difluoroethyl)phenyl)-2-(4-(difluoromethoxy)phenyl)pyrimidine-5-carboxamide]
12 | > 0.1 | CC1=NN(c2ccc(OC(F)F)cc2)C(=O)C1(C)C(=O)Nc1cccc(C(C)(F)F)c1 (stereo not shown) [Compound 174, N-(3-(1,1-difluoroethyl)phenyl)-1-(4-(difluoromethoxy)phenyl)-3,4-dimethyl-5-oxo-4,5-dihydro-1H-pyrazole-4-carboxamide]
13 | 0.001 to 0.1 | Cc1nn(-c2ccc(OC(F)F)c(-c3ccccn3)c2)cc1C(=O)Nc1cccc(C(C)(F)F)c1 [Compound 175, N-[3-(1,1-difluoroethyl)phenyl]-1-[4-(difluoromethoxy)-3-(2-pyridyl)phenyl]-3-methyl-pyrazole-4-carboxamide]
